Source: PubChem BioAssay (NCI)
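In this assay, cells in 96-well plates receive the compound at five concentrations for 48 hours. Endpoints are linearly interpolated between the surrounding concentrations. TGI marks complete inhibition of growth.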

Tests used:
Test in all cases: NCI tumour cell line growth inhibition, 48 h
786-0 renal = system: 786-0 renal
A498 renal = system: A498 renal
A549 NSCLC = system: A549 NSCLC
ACHN renal = system: ACHN renal
BT-549 breast = system: BT-549 breast
CAKI-1 renal = system: CAKI-1 renal
CCRF-CEM leukemia = system: CCRF-CEM leukemia
COLO 205 colon = system: COLO 205 colon
DLD-1 colon = system: DLD-1 colon
DMS 114 small cell lung = system: DMS 114 small cell lung
DMS 273 small cell lung = system: DMS 273 small cell lung
DU-145 prostate = system: DU-145 prostate
EKVX NSCLC = system: EKVX NSCLC
HCC-2998 colon = system: HCC-2998 colon
HCT-116 colon = system: HCT-116 colon
HCT-15 colon = system: HCT-15 colon
HL-60(TB) leukemia = system: HL-60(TB) leukemia
HOP-18 NSCLC = system: HOP-18 NSCLC
HOP-62 NSCLC = system: HOP-62 NSCLC
HOP-92 NSCLC = system: HOP-92 NSCLC
HS 578T breast = system: HS 578T breast
HT29 colon = system: HT29 colon
IGROV1 ovarian = system: IGROV1 ovarian
K-562 leukemia = system: K-562 leukemia
KM12 colon = system: KM12 colon
KM20L2 colon = system: KM20L2 colon
LOX IMVI melanoma = system: LOX IMVI melanoma
M14 melanoma = system: M14 melanoma
M19-MEL melanoma = system: M19-MEL melanoma
MALME-3M melanoma = system: MALME-3M melanoma
MCF7 breast = system: MCF7 breast
MDA-MB-231 breast = system: MDA-MB-231 breast
MDA-MB-435 = system: MDA-MB-435
MDA-N = system: MDA-N
MOLT-4 leukemia = system: MOLT-4 leukemia
NCI-H226 lung = system: NCI-H226 lung
NCI-H23 lung = system: NCI-H23 lung
NCI-H460 lung = system: NCI-H460 lung
NCI-H522 lung = system: NCI-H522 lung
NCI/ADR-RES ovarian = system: NCI/ADR-RES ovarian
OVCAR-3 ovarian = system: OVCAR-3 ovarian
OVCAR-4 ovarian = system: OVCAR-4 ovarian
OVCAR-5 ovarian = system: OVCAR-5 ovarian
OVCAR-8 ovarian = system: OVCAR-8 ovarian
P388 leukemia = system: P388 leukemia
P388/ADR leukemia = system: P388/ADR leukemia
PC-3 prostate = system: PC-3 prostate
RPMI-8226 leukemia = system: RPMI-8226 leukemia
RXF 393 renal = system: RXF 393 renal
SF-268 CNS = system: SF-268 CNS
SF-295 CNS = system: SF-295 CNS
SF-539 CNS = system: SF-539 CNS
SK-MEL-2 melanoma = system: SK-MEL-2 melanoma
SK-MEL-28 melanoma = system: SK-MEL-28 melanoma
SK-MEL-5 melanoma = system: SK-MEL-5 melanoma
SK-OV-3 ovarian = system: SK-OV-3 ovarian
SN12C renal = system: SN12C renal
SN12K1 renal = system: SN12K1 renal
SNB-19 CNS = system: SNB-19 CNS
SNB-75 CNS = system: SNB-75 CNS
SNB-78 CNS = system: SNB-78 CNS
SR leukemia = system: SR leukemia
SW-620 colon = system: SW-620 colon
T-47D breast = system: T-47D breast
TK-10 renal = system: TK-10 renal
U251 CNS = system: U251 CNS
UACC-257 melanoma = system: UACC-257 melanoma
UACC-62 melanoma = system: UACC-62 melanoma
UO-31 renal = system: UO-31 renal
XF 498 CNS = system: XF 498 CNS

## CCC1(c2ccc(N)cc2)CCC(=O)NC1=O (stereo not given)
786-0 renal
  TGI: > 5 mM
A498 renal
  TGI: > 5 mM
A549 NSCLC
  TGI: > 5 mM
ACHN renal
  TGI: > 5 mM
BT-549 breast
  TGI: > 5 mM
CAKI-1 renal
  TGI: 4.31 mM
CCRF-CEM leukemia
  TGI: > 1.99 mM
COLO 205 colon
  TGI: 3.07 mM
DLD-1 colon
  TGI: > 5 mM
DMS 114 small cell lung
  TGI: > 4.32 mM
DMS 273 small cell lung
  TGI: > 5 mM
DU-145 prostate
  TGI: > 5 mM
EKVX NSCLC
  TGI: > 5 mM
HCC-2998 colon
  TGI: > 5 mM
HCT-116 colon
  TGI: > 5 mM
HCT-15 colon
  TGI: > 5 mM
HL-60(TB) leukemia
  TGI: 3.63 mM
HOP-18 NSCLC
  TGI: > 4.91 mM
HOP-62 NSCLC
  TGI: > 1.58 mM
HOP-92 NSCLC
  TGI: 3.56 mM
HS 578T breast
  TGI: > 5 mM
HT29 colon
  TGI: > 3.75 mM
IGROV1 ovarian
  TGI: > 4.85 mM
K-562 leukemia
  TGI: > 5 mM
KM12 colon
  TGI: > 3.87 mM
KM20L2 colon
  TGI: > 5 mM
LOX IMVI melanoma
  TGI: > 3.97 mM
M14 melanoma
  TGI: > 4.56 mM
M19-MEL melanoma
  TGI: > 4.74 mM
MALME-3M melanoma
  TGI: > 4.86 mM
MCF7 breast
  TGI: > 5 mM
MDA-MB-231 breast
  TGI: > 5 mM
MDA-MB-435
  TGI: > 5 mM
MDA-N
  TGI: > 5 mM
MOLT-4 leukemia
  TGI: > 3.75 mM
NCI-H226 lung
  TGI: > 4.82 mM
NCI-H23 lung
  TGI: > 5 mM
NCI-H460 lung
  TGI: > 5 mM
NCI-H522 lung
  TGI: 4.95 mM
NCI/ADR-RES ovarian
  TGI: 4.82 mM
OVCAR-3 ovarian
  TGI: > 3.97 mM
OVCAR-4 ovarian
  TGI: 4.94 mM
OVCAR-5 ovarian
  TGI: > 5 mM
OVCAR-8 ovarian
  TGI: > 5 mM
P388 leukemia
  TGI: > 5 mM
P388/ADR leukemia
  TGI: > 2.81 mM
PC-3 prostate
  TGI: 4.55 mM
RPMI-8226 leukemia
  TGI: > 5 mM
RXF 393 renal
  TGI: > 3.97 mM
SF-268 CNS
  TGI: > 5 mM
SF-295 CNS
  TGI: > 3.87 mM
SF-539 CNS
  TGI: > 5 mM
SK-MEL-2 melanoma
  TGI: > 5 mM
SK-MEL-28 melanoma
  TGI: > 5 mM
SK-MEL-5 melanoma
  TGI: 3.67 mM
SK-OV-3 ovarian
  TGI: 1.95 mM
SN12C renal
  TGI: > 5 mM
SN12K1 renal
  TGI: > 5 mM
SNB-19 CNS
  TGI: > 5 mM
SNB-75 CNS
  TGI: 4.49 mM
SNB-78 CNS
  TGI: 4.97 mM
SR leukemia
  TGI: > 5 mM
SW-620 colon
  TGI: > 3.97 mM
T-47D breast
  TGI: > 4.73 mM
TK-10 renal
  TGI: 4.89 mM
U251 CNS
  TGI: > 4.06 mM
UACC-257 melanoma
  TGI: > 4.88 mM
UACC-62 melanoma
  TGI: > 4.51 mM
UO-31 renal
  TGI: > 3.95 mM
XF 498 CNS
  TGI: 4.26 mM
